According to ChEMBL document CHEMBL3286147 (J Med Chem, 2014):

What was measured:
[1] = test system: Hepatitis C virus; assay: Antiviral activity against Hepatitis C virus genotype 1b infected in human HuH7 cells after 72 hrs by FRET assay; assay type: functional, cell-based, Hepacivirus hominis; details: Huh-7, 72 h
[2] = test system: Hepatitis C virus; assay: Antiviral activity against Hepatitis C virus genotype 1a; assay type: functional, Hepacivirus hominis; details: subtype 1a
[3] = test system: Hepatitis C virus; assay: Antiviral activity against Hepatitis C virus genotype 1b; assay type: functional, Hepacivirus hominis
[4] = test system: Hepatitis C virus; assay: Antiviral activity against Hepatitis C virus genotype 1 infected in human assessed as log10 IU/ml reduction in mean plasma viral load at 1 mg measured at 24 hrs; assay type: functional, Hepacivirus hominis
[5] = test system: Hepatitis C virus; assay: microbe, parasite or virus in culture; details: genotype 2a JFH-1
Description: Antiviral activity against Hepatitis C virus genotype 2a JFH

[6] = in vivo; details: rat, liver, 5 mg/kg
Description: Ratio of drug level in liver to plasma in rat at 5 mg/kg

[7] = test system: Hepatitis C virus; assay: Antiviral activity against Hepatitis C virus genotype 1 infected in human assessed as log10 IU/ml reduction in mean plasma viral load at 10 mg measured at 24 hrs; assay type: functional, Hepacivirus hominis
[8] = test system: Hepatitis C virus; assay: Antiviral activity against Hepatitis C virus genotype 1b infected in human assessed as log10 IU/ml reduction in mean plasma viral load at 100 mg measured at 24 hrs; assay type: functional, Hepacivirus hominis
[9] = test system: Bovine viral diarrhea virus 1; assay: Antiviral activity against Bovine viral diarrhea virus infected in human HuH7 cells after 72 hrs by luciferase reporter gene assay; assay type: functional, organism-based; details: Bovine viral diarrhea virus isolates and strains, Huh-7, 72 h
[10] = test system: Hepatitis C virus; assay: Selectivity ratio of EC50 for Hepatitis C virus genotype 1b harboring NS5A Y93H mutation to EC50 for Hepatitis C virus genotype 1b; assay type: functional, Hepacivirus hominis
[11] = Selectivity ratio of EC50 for Bovine viral diarrhea virus to EC50 for Hepatitis C virus genotype 1b; assay type: functional
[12] = Cytotoxicity against human HuH7 cells by Alamar blue assay; assay type: cell-based, Huh-7
[13] = test system: Hepatitis C virus; assay: Selectivity ratio of EC50 for Hepatitis C virus genotype 1b harboring NS5A L31V/Q54L mutation to EC50 for Hepatitis C virus genotype 1b; assay type: functional, Hepacivirus hominis

## C[C@H](NC(=O)OCc1ccccc1)C(=O)Nc1ccc(C2S/C(=N\c3cccc(F)c3)N(Cc3ccccn3)C2=O)cc1 (stereo partly drawn)
[1]
  EC50: 2 nM

## O=C(Nc1ccc(/C=C/c2ccc(NC(=O)[C@@H]3CCCN3C(=O)Cc3ccccc3)cc2)cc1)[C@@H]1CCCN1C(=O)Cc1ccccc1
[2]
  EC50: > 10000 nM

## O=C(Nc1ccc(C2S/C(=N\c3cccc(F)c3)N(Cc3ccco3)C2=O)cc1)[C@H]1CCCN1C(=O)OCc1ccccc1 (stereo partly drawn)
[1]
  EC50: 6000 nM

## O=C1N[C@H]2[C@H](CO[C@H]2CCCCC(=O)N2CCC[C@H]2C(=O)Nc2ccc(/C=C/c3ccc(NC(=O)[C@@H]4CCCN4C(=O)Cc4ccccc4)cc3)cc2)N1
[3]
  EC50: > 10000 nM

## C[C@H](NC(=O)OCc1ccccc1)C(=O)Nc1ccc(C2S/C(=N\c3cccc(F)c3)N(Cc3cnccn3)C2=O)cc1 (stereo partly drawn)
[1]
  EC50: 38 nM

## C[C@H](NC(=O)OCc1ccccc1)C(=O)Nc1ccc(C2S/C(=N\c3ccc(N4CCOCC4)c(F)c3)N(Cc3ccco3)C2=O)cc1 (stereo partly drawn)
[1]
  EC50: 15 nM

## COC(=O)N[C@H](C(=O)N1CCC[C@H]1c1ncc(-c2ccc(-c3ccc(-c4cnc([C@@H]5CCCN5C(=O)[C@@H](NC(=O)OC)C(C)C)[nH]4)cc3)cc2)[nH]1)C(C)C
[4]
  Activity: 1.8 log10IU/ml
[5]
  EC50: 0.028 nM
[6]
  Kp: 5
[7]
  Activity: 3.2 log10IU/ml
[8]
  Activity: 3.6 log10IU/ml

## O=C(Nc1ccc(C2S/C(=N\c3cccc(F)c3)N(Cc3ccco3)C2=O)cc1)[C@H]1CCCN1C(=O)Cc1ccccc1 (stereo partly drawn)
[1]
  EC50: 2 nM

## C[C@H](NC(=O)OCc1ccccc1)C(=O)Nc1ccc(C2S/C(=N\c3cccc(F)c3)N(Cc3cc(F)c(F)c(F)c3)C2=O)cc1 (stereo partly drawn)
[1]
  EC50: 600 nM

## C[C@H](NC(=O)OCc1ccccc1)C(=O)Nc1ccc(C2S/C(=N\c3cccc(F)c3)N(Cc3ccco3)C2=O)cc1 (stereo partly drawn)
[1]
  EC50: 570 nM
[9]
  EC50: > 50000 nM
[10]
  Ratio EC50: >5
[11]
  Ratio EC50: > 50
[12]
  CC50: > 50000 nM

## O=C(Nc1ccc(C2S/C(=N\c3cccc(F)c3)N(Cc3ccco3)C2=O)cc1)[C@@H]1CCCN1C(=O)CCc1ccccc1 (stereo partly drawn)
[1]
  EC50: 5500 nM

## C[C@H](NC(=O)Cc1ccccc1)C(=O)Nc1ccc(C2S/C(=N\c3cccc(F)c3)N(Cc3ccco3)C2=O)cc1 (stereo partly drawn)
[1]
  EC50: 5 nM
[10]
  Ratio EC50: >625
[13]
  Ratio EC50: 354

## C[C@H](NC(=O)CCc1ccccc1)C(=O)Nc1ccc(C2S/C(=N\c3cccc(F)c3)N(Cc3ccco3)C2=O)cc1 (stereo partly drawn)
[1]
  EC50: 1900 nM
